Measured values as given in ChEMBL document CHEMBL3992554, “Incorporation of arginine mimetic residue into peptides for recognition of double stranded nucleic acid structure: Binding and aggregation studies” (Bioorg Med Chem, 2017).
Calls of active or inactive are those of the source. The rule behind the calls is not given here. Peptide text beside a SMILES is read from it. * marks the point of attachment. Pyrrole2CO(5-CO-guanidino) = N=C(N)NC(=O)c1ccc(C(=O)*)[nH]1

Legend:
[1] = Aqueous solubility of the compound in water; assay type: physicochemical; settings: buffer
[2] = Chemical stability in water at +8 degC; assay type: physicochemical; settings: buffer
[3] = Aggregation of the compound in water at 25 to 95 degC by UV-Visible titration method; assay type: physicochemical; settings: buffer
Bos taurus [4] = organism: Bos taurus; assay: Binding affinity to calf thymus duplex DNA in pH 7.4 sodium cacodylate buffer by UV-Visible titration method
[5] = Binding affinity to poly(dG-dC)2 DNA (unknown origin) in pH 7.4 sodium cacodylate buffer by UV-Visible titration method
[6] = Binding affinity to poly(dA-dT)2 DNA (unknown origin) in pH 7.4 sodium cacodylate buffer by UV-Visible titration method
[7] = Binding affinity to poly(rA).(rU) RNA duplex (unknown origin) in pH 7.4 sodium cacodylate buffer by UV-Visible titration method
[8] = Binding affinity to poly(dA-dT)2 DNA (unknown origin) in pH 7.4 sodium cacodylate buffer assessed as positive-negative bisignate ICD band at peptide to polynucleotide ratio of 0.1 to 1.7 by CD titration method
Bos taurus [9] = organism: Bos taurus; assay: Binding affinity to calf thymus duplex DNA in pH 7.4 sodium cacodylate buffer assessed as positive-negative bisignate ICD band at peptide to polynucleotide ratio of 0.2 to 1.3 by CD titration method
[10] = Binding affinity to poly(dG-dC)2 DNA (unknown origin) in pH 7.4 sodium cacodylate buffer assessed as positive-negative bisignate ICD band at peptide to polynucleotide ratio of 0.1 to 1.7 by CD titration method
[11] = Binding affinity to poly(rA).(rU) RNA duplex (unknown origin) in pH 7.4 sodium cacodylate buffer assessed as positive-negative bisignate ICD band at peptide to polynucleotide ratio of 0.1 to 1.7 by CD titration method
[12] = Binding affinity to poly(dA-dT)2 DNA (unknown origin) in pH 7.4 sodium cacodylate buffer at peptide to polynucleotide ratio of 0.2 to 2.1 by CD titration method
Bos taurus [13] = organism: Bos taurus; assay: Binding affinity to calf thymus duplex DNA in pH 7.4 sodium cacodylate buffer at peptide to polynucleotide ratio of 0.2 to 2.1 by CD titration method
[14] = Binding affinity to poly(dG-dC)2 DNA (unknown origin) in pH 7.4 sodium cacodylate buffer at peptide to polynucleotide ratio of 0.2 to 2.4 by CD titration method
[15] = Binding affinity to poly(rA).(rU) RNA duplex (unknown origin) in pH 7.4 sodium cacodylate buffer at peptide to polynucleotide ratio of 0.2 to 2.4 by CD titration method
[16] = Binding affinity to poly(dA-dT)2 DNA (unknown origin) in pH 7.4 sodium cacodylate buffer assessed as positive induced CD band at peptide to polynucleotide ratio of 0.4 by CD titration method
Bos taurus [17] = organism: Bos taurus; assay: Binding affinity to calf thymus duplex DNA in pH 7.4 sodium cacodylate buffer assessed as change in melting temperature at peptide to polynucleotide ratio of 0.3 by thermal denaturation assay
[18] = Binding affinity to poly(dA-dT)2 DNA (unknown origin) in pH 7.4 sodium cacodylate buffer at 5.35 uM by fluorimetric titration method
[19] = Binding affinity to poly(dG-dC)2 DNA (unknown origin) in pH 7.4 sodium cacodylate buffer at 5.35 uM by fluorimetric titration method
[20] = Binding affinity to poly(rA).(rU) RNA duplex (unknown origin) in pH 7.4 sodium cacodylate buffer at 5.35 uM by fluorimetric titration method
[21] = Binding affinity to poly(dA-dT)2 DNA (unknown origin) in pH 7.4 sodium cacodylate buffer assessed as change in melting temperature at peptide to polynucleotide ratio of 0.3 by thermal denaturation assay
[22] = Binding affinity to poly(rA).(rU) RNA duplex (unknown origin) in pH 7.4 sodium cacodylate buffer assessed as change in melting temperature at peptide to polynucleotide ratio of 0.3 by thermal denaturation assay
Bos taurus [23] = organism: Bos taurus; assay: Binding affinity to calf thymus duplex DNA in pH 7.4 sodium cacodylate buffer assessed as change in melting temperature at peptide to polynucleotide ratio of 0.5 by thermal denaturation assay
[24] = Binding affinity to poly(dA-dT)2 DNA (unknown origin) in pH 7.4 sodium cacodylate buffer assessed as change in melting temperature at peptide to polynucleotide ratio of 0.5 by thermal denaturation assay
[25] = Binding affinity to poly(rA).(rU) RNA duplex (unknown origin) in pH 7.4 sodium cacodylate buffer assessed as change in melting temperature at peptide to polynucleotide ratio of 0.5 by thermal denaturation assay
Bos taurus [26] = organism: Bos taurus; assay: Binding affinity to calf thymus duplex DNA in pH 7.4 sodium cacodylate buffer assessed as positive induced CD band at peptide to polynucleotide ratio of 0.4 by CD titration method
[27] = Binding affinity to poly(dG-dC)2 DNA (unknown origin) in pH 7.4 sodium cacodylate buffer assessed as positive induced CD band at peptide to polynucleotide ratio of 0.4 by CD titration method
[28] = Binding affinity to poly(rA).(rU) RNA duplex (unknown origin) in pH 7.4 sodium cacodylate buffer assessed as positive induced CD band at peptide to polynucleotide ratio of 0.4 by CD titration method
[29] = Induction of poly(dA-dT)2 DNA aggregation (unknown origin) in pH 7.4 sodium cacodylate buffer at peptide to polynucleotide ratio of 0.5 by CD titration method
Bos taurus [30] = organism: Bos taurus; assay: Induction of calf thymus duplex DNA aggregation in pH 7.4 sodium cacodylate buffer at peptide to polynucleotide ratio of 0.5 by CD titration method
[31] = Induction of poly(dG-dC)2 DNA aggregation (unknown origin) in pH 7.4 sodium cacodylate buffer at peptide to polynucleotide ratio of 0.5 by CD titration method
[32] = Induction of poly(rA).(rU) RNA duplex aggregation (unknown origin) in pH 7.4 sodium cacodylate buffer at peptide to polynucleotide ratio of 0.5 by CD titration method
[33] = Binding affinity to poly(dA-dT)2 DNA (unknown origin) in pH 7.4 sodium cacodylate buffer by fluorimetric titration method
[34] = Binding affinity to poly(dG-dC)2 DNA (unknown origin) in pH 7.4 sodium cacodylate buffer by fluorimetric titration method
[35] = Binding affinity to poly(rA).(rU) RNA duplex (unknown origin) in pH 7.4 sodium cacodylate buffer by fluorimetric titration method
Bos taurus [36] = organism: Bos taurus; assay: Binding affinity to calf thymus duplex DNA in pH 7.4 sodium cacodylate buffer at peptide to polynucleotide ratio of 0.1 to 0.5 by CD titration method
[37] = Binding affinity to poly(dA-dT)2 DNA (unknown origin) in pH 7.4 sodium cacodylate buffer at peptide to polynucleotide ratio of <0.4 by CD titration method
[38] = Binding affinity to poly(dG-dC)2 DNA (unknown origin) in pH 7.4 sodium cacodylate buffer at peptide to polynucleotide ratio of 0.1 to 0.6 by CD titration method
[39] = Binding affinity to poly(rA).(rU) RNA duplex (unknown origin) in pH 7.4 sodium cacodylate buffer at peptide to polynucleotide ratio of 0.1 to 0.95 by CD titration method
[40] = Binding affinity to poly(dA-dT)2 DNA (unknown origin) in pH 7.4 sodium cacodylate buffer assessed as negative induced band at peptide to polynucleotide ratio of >0.8 by CD titration method
Bos taurus [41] = organism: Bos taurus; assay: Induction of calf thymus duplex DNA aggregation in pH 7.4 sodium cacodylate buffer at 0.3 to 0.5 equiv after 5 mins by atomic force microscopic method
Bos taurus [42] = organism: Bos taurus; assay: Induction of calf thymus duplex DNA aggregation in pH 7.4 sodium cacodylate buffer at 0.3 to 1.5 equiv by dynamic light scattering
Bos taurus [43] = organism: Bos taurus; assay: Binding affinity to calf thymus duplex DNA in pH 7.4 sodium cacodylate buffer by ITC
[44] = Binding affinity to poly(dG-dC)2 DNA (unknown origin) in pH 7.4 sodium cacodylate buffer by ITC
[45] = Binding affinity to poly(dA-dT)2 DNA (unknown origin) in pH 7.4 sodium cacodylate buffer by ITC
[46] = Binding affinity to poly(rA).(rU) RNA duplex (unknown origin) in pH 7.4 sodium cacodylate buffer by ITC
[47] = Binding affinity to poly(dA-dT)2 DNA (unknown origin) in pH 7.4 sodium cacodylate buffer at peptide to polynucleotide ratio of 0.1 to 1.1 by CD titration method

SMILES | solubility [1] | Stability [2] | Activity [3] | log Ks (Bos taurus [4]) | log Ks [5] | log Ks [6] | log Ks [7] | ΔTm (Bos taurus [17]) [°C] | ΔTm [21] [°C] | ΔTm [22] [°C] | ΔTm (Bos taurus [23]) [°C] | ΔTm [24] [°C] | ΔTm [25] [°C] | other results
N=C(N)NC(=O)c1ccc(C(=O)NCCCC[C@H](NC(=O)[C@@H](N)CCCCNC(=O)c2ccc(C(=O)NC(=N)N)[nH]2)C(N)=O)[nH]1 | Soluble | Stable | Not Active | 4.9 |  | 4.6 | 3.7 |  |  |  |  |  |  | Activity [12]: Active; Activity (Bos taurus [13]): Active; Activity [14]: Active; Activity [15]: Active
N=C(N)NC(=O)c1ccc(C(=O)NCCCC[C@H](NC(=O)[C@H](CCCCN)NC(=O)[C@H](CCCCN)NC(=O)[C@@H](N)CCCCN)C(N)=O)[nH]1 (H-KKKK(Pyrrole2CO(5-CO-guanidino))-NH2) | Soluble | Stable | Not Active | 6.1 | 6.4 | 5.5 | 5.3 | 0.5 | 3.3 | 7.9 | 2.6 | 4.9 | 11.1 | Activity [33]: Active; Activity [34]: Active; Activity [35]: Active; Activity (Bos taurus [36]): Active; Activity [37]: Active; Activity [38]: Active; Activity [39]: Active; Activity [40]: Active; Activity (Bos taurus [41]): Active; Activity (Bos taurus [42]): Active
N=C(N)NCCC[C@H](NC(=O)[C@H](CCCNC(=N)N)NC(=O)[C@H](CCCNC(=N)N)NC(=O)[C@@H](N)CCCNC(=N)N)C(N)=O (H-RRRR-NH2) | Soluble | Stable | Not Active |  |  |  |  | 1.9 | 4.1 | 12.7 | 2.7 | 5 | 15.3 | log Ks (Bos taurus [43]): 5.33 to 5.6; log Ks [44]: 5.42 to 5.5; log Ks [45]: 5.44 to 5.5; log Ks [46]: 5.54 to 5.6; Activity [47]: Active

The next lines start with results.

solubility [1] | Stability [2] | Activity [3] | log Ks (Bos taurus [4]) | log Ks [5] | log Ks [6] | log Ks [7] | ΔTm (Bos taurus [17]) [°C] | ΔTm [21] [°C] | ΔTm [22] [°C] | ΔTm (Bos taurus [23]) [°C] | ΔTm [24] [°C] | ΔTm [25] [°C] | SMILES | other results
Soluble | Stable | Not Active | 4.6 | 5.2 | 4.8 | 4.2 |  |  |  |  |  |  | N=C(N)NC(=O)c1ccc(C(=O)NCCCC[C@H](NC(=O)[C@H](CCCCNC(=O)c2ccc(C(=O)NC(=N)N)[nH]2)NC(=O)c2ccc(C(=O)NC(=N)N)[nH]2)C(N)=O)[nH]1 | Activity [8]: Active; Activity (Bos taurus [9]): Active; Activity [10]: Active; Activity [11]: Active
Soluble | Stable | Not Active | 5.4 | 7.3 | 5.6 | 7 | 0 | 0.6 | 2.1 | 0 | 0.5 | 2.4 | N=C(N)NC(=O)c1ccc(C(=O)NCCCC[C@H](NC(=O)[C@H](CCCCNC(=O)c2ccc(C(=O)NC(=N)N)[nH]2)NC(=O)[C@H](CCCCNC(=O)c2ccc(C(=O)NC(=N)N)[nH]2)NC(=O)[C@@H](N)CCCCNC(=O)c2ccc(C(=O)NC(=N)N)[nH]2)C(N)=O)[nH]1 (H-K(Pyrrole2CO(5-CO-guanidino))K(Pyrrole2CO(5-CO-guanidino))K(Pyrrole2CO(5-CO-guanidino))K(Pyrrole2CO(5-CO-guanidino))-NH2) | Activity [16]: Active; Activity [18]: Active; Activity [19]: Active; Activity [20]: Active; Activity (Bos taurus [26]): Active; Activity [27]: Active; Activity [28]: Active; Activity [29]: Active; Activity (Bos taurus [30]): Active; Activity [31]: Active; Activity [32]: Active
